Converted amounts (≈) assume the structure as drawn. Like-named read-outs stand apart in the source and are kept apart here.
Assays:
[1] = system: P. mirabilis; assay: MIC by Tube Dilution Technique in Nutrient Broth (Example 9 table); assay type: cell-based; settings: Proteus mirabilis; Pm-2 P. mirabilis A9900
Source text: (§1) MIC (mcg./ml.) by Tube Dilution Technique in Nutrient Broth.

[2] = system: S. enteritidis; assay: as above; assay type: cell-based; settings: Salmonella enterica; Se-1 S. enteritidis A9531
Source text: as §1

[3] = system: S. aureus; assay: as above; assay type: cell-based; settings: Staphylococcus aureus
Source text: as §1

[4] = system: E. coli; assay: as above; assay type: cell-based; settings: Escherichia coli
Source text: as §1

[5] = system: S. pyogenes; assay: as above; assay type: cell-based; settings: Streptococcus pyogenes; Sp-3 S. pyogenes A9604
Source text: as §1

[6] = system: P. morganii; assay: as above; assay type: cell-based; settings: Morganella morganii; Pg-8 P. morganii A15153
Source text: as §1

[7] = system: P. aeruginosa; assay: as above; assay type: cell-based; settings: Pseudomonas aeruginosa; P. aeruginosa A9843
Source text: as §1

[8] = Recovery in urine after intramuscular injection; settings: rat, im, 10 mg/kg
[9] = system: Proteus rettgeri; assay: Growth inhibitory activity, antibiotic dilution technique
[10] = system: Edwardsiella tarda; assay: as above; settings: read-out: Minimum inhibitory concentration
[11] = Antibiotic concentration in blood after intramuscular injection; settings: mouse, im
[12] = system: Proteus morganii; assay: Intramuscular treatment of systemically infected mice; assay type: in vivo; settings: Morganella morganii, im, 3.5 h, read-out: PD50 /treatment
Source text: (§2) Treatment of Systemically Infected Mice. The procedures were identical with those published previously [Leitner et al., BL-S640, a Cephalosporin With a Broad Spectrum of Antibacterial Activity: Bioavailability and Therapeutic Properties in Rodents, Antimicrob. Agents Chemother. 7:306-310, (1975)], except that:
(§3) (a) the hog gastric mucin used in infections with Staphylococcus aureus No. 2 was purchased from American Laboratories, Inc., Omaha, Neb. (lot No. 154163) and b) that the medium used to suspend all other organisms contained 3% (rather than 4%) hog gastric mucin (type 1701W, Wilson Laboratories, Inc., Park Forest South, Ill.).
(§4) *Animals were treated twice; 1 and 3.5 hours after infection.

[13] = system: Providencia stuartii; assay: as above; assay type: in vivo; settings: im, 3.5 h, read-out: PD50 /treatment
Source text: as §2, §3, §4

[14] = system: Klebsiella pneumoniae; assay: as above; assay type: in vivo; settings: im, 3.5 h, read-out: PD50 /treatment
Source text: as §2, §3, §4

[15] = system: Citrobacter sp.; assay: as above; assay type: in vivo; settings: im, Citrobacter sp. strain 1, challenge 5×10^6 -2×10^7, treated 1 and 3.5 hours after infection, read-out: PD50 /treatment
Source text: as §2, §3, §4

[16] = system: Escherichia coli; assay: as above; assay type: in vivo; settings: im, 3.5 h, read-out: PD50 /treatment
Source text: as §2, §3, §4

[17] = system: Proteus rettgeri; assay: as above; assay type: in vivo; settings: Providencia rettgeri, im, Proteus rettgeri strain 4, challenge 2×10^6 -3×10^6, treated 1 and 3.5 hours after infection, read-out: PD50 /treatment
Source text: as §2, §3, §4

[18] = system: Proteus mirabilis; assay: as above; assay type: in vivo; settings: im, 3.5 h, read-out: PD50 /treatment
Source text: as §2, §3, §4

[19] = system: Proteus vulgaris; assay: as above; assay type: in vivo; settings: im, 3.5 h, read-out: PD50 /treatment
Source text: as §2, §3, §4

[20] = system: Bordetella bronchiseptica; assay: Growth inhibitory activity, antibiotic dilution technique; settings: read-out: Minimum inhibitory concentration
[21] = target: staphylococcal β-lactamase, Staphylococcus aureus A9606 (Staphylococcus aureus, UniProt P00807); assay: Hydrolysis by β-lactamase in cell-free extracts; assay type: biochemical; settings: cell-free extract
Chain of staphylococcal β-lactamase, Staphylococcus aureus A9606 (P00807 25-281): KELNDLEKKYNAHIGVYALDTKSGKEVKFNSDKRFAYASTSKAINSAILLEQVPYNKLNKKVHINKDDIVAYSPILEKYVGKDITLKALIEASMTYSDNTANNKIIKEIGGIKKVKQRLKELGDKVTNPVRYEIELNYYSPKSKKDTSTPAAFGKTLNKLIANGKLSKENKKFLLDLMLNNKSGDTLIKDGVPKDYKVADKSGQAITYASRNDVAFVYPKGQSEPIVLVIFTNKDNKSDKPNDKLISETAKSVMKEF
Method: Miscellaneous. Methods for determining bactericidal activity and susceptibility to cell-free β-lactamase were those previously used; Leitner et al., BL-S640, A Cephalosporin With a Broad Spectrum of Antibacterial Activity: Properties in vitro, Antimicrob. Agents Chemother. 7:298-305 (1975).
Susceptibility to β-lactamase. Susceptibility to enzymic hydrolysis was assessed by determining relative rates of hydrolysis by cell-free preparations of various β-lactamases (Table 6). BL-S786 was slightly to markedly less susceptible than the other cephalosporins to hydrolysis by β-lactamases of Type Ia, Ib, IIIa and IVa. All cephalosporins were poor substrates for Type IIa and staphylococcal β-lactamases. The four cephalosporins were hydrolyzed at similar rates by the Type IVb enzyme.

[22] = system: Klebsiella pneumoniae; assay: Effect of inoculum size on susceptibility of Enterobacteriaceae
[23] = in vivo; settings: mouse, im
[24] = Proteus morganii strain 1, challenge 1×10^5 -4×10^5, treated 1 and 3.5 hours after infection
[25] = Proteus morganii strain 2, challenge 2×10^6 -3×10^6, treated 1 and 3.5 hours after infection
[26] = Providencia stuartii strain 2, challenge 1×10^6 ×5×10^6, treated 1 and 3.5 hours after infection
[27] = Providencia stuartii strain 3, challenge 2×10^7, treated 1 and 3.5 hours after infection
[28] = Klebsiella pneumoniae strain 1, challenge 4×10^4 -5×10^4, treated 1 and 3.5 hours after infection
[29] = Klebsiella pneumoniae strain 7, challenge 9×10^2 -1×10^3, treated 1 and 3.5 hours after infection
[30] = Escherichia coli strain 1, challenge 2×10^5 organisms, treated 1 and 3.5 hours after infection
[31] = Escherichia coli strain 8, challenge 6×10^5 -4×10^6, treated 1 and 3.5 hours after infection
[32] = Escherichia coli strain 9, challenge 7×10^3 -2×10^4, treated 1 and 3.5 hours after infection
[33] = Proteus mirabilis strain 1, challenge 7×10^6 -9×10^6, treated 1 and 3.5 hours after infection
[34] = Proteus mirabilis strain 5, challenge 9×10^5 -3×10^6, treated 1 and 3.5 hours after infection
[35] = Proteus mirabilis strain 8, challenge 6×10^5 -4×10^6, treated 1 and 3.5 hours after infection
[36] = Proteus vulgaris strain 1, challenge 1×10^6 -2×10^6, treated 1 and 3.5 hours after infection
[37] = Proteus vulgaris strain 3, challenge 4×10^5, treated 1 and 3.5 hours after infection
[38] = read-out: Minimum Inhibitory Concentration, Klebsiella pneumoniae strain 1, A, Inoculum of 10^2 organisms
[39] = read-out: Minimum Inhibitory Concentration, Klebsiella pneumoniae strain 1, B, Inoculum of 10^6 organisms
[40] = read-out: Minimum Inhibitory Concentration, Klebsiella pneumoniae strain 2, A, Inoculum of 10^2 organisms
[41] = read-out: Minimum Inhibitory Concentration, Klebsiella pneumoniae strain 2, B, Inoculum of 10^6 organisms
[42] = read-out: Minimum Inhibitory Concentration, Klebsiella pneumoniae strain 3, A, Inoculum of 10^2 organisms
[43] = read-out: Minimum Inhibitory Concentration, Klebsiella pneumoniae strain 3, B, Inoculum of 10^6 organisms
[44] = read-out: Minimum Inhibitory Concentration, Klebsiella pneumoniae strain 4, A, Inoculum of 10^2 organisms
[45] = read-out: Minimum Inhibitory Concentration, Klebsiella pneumoniae strain 4, B, Inoculum of 10^6 organisms
[46] = read-out: Minimum Inhibitory Concentration, Klebsiella pneumoniae strain 5, A, Inoculum of 10^2 organisms
[47] = read-out: Minimum Inhibitory Concentration, Klebsiella pneumoniae strain 5, B, Inoculum of 10^6 organisms
[48] = read-out: Minimum Inhibitory Concentration, Klebsiella pneumoniae strain 6, A, Inoculum of 10^2 organisms
[49] = read-out: Minimum Inhibitory Concentration, Klebsiella pneumoniae strain 6, B, Inoculum of 10^6 organisms

NCc1ccccc1CC(=O)N[C@@H]1C(=O)N2C(C(=O)O)=C(CSc3nnnn3CC(=O)O)CS[C@H]12 [Example 1]
MIC [1]: 0.4 µg/mL (≈ 0.77 µM) | MIC [2]: 0.2 µg/mL (≈ 0.385 µM) | MIC ([3]; Sa-2 S. aureus +50% serum): > 3.1 µg/mL | MIC ([3]; Sa-2 S. aureus Smith A9537): 3.1 µg/mL (≈ 5.97 µM) | MIC ([3]; Sa-11 S. aureus BX-1633 A9606): 3.1 µg/mL (≈ 5.97 µM) | MIC ([3]; Sa-44 S. aureus A15097): 6.3 µg/mL (≈ 12.1 µM) | MIC ([4]; Ec-1 E. coli NIHJ): 0.8 µg/mL (≈ 1.54 µM) | MIC ([4]; Ec-3 E. coli Juhl A15119): 0.8 µg/mL (≈ 1.54 µM) | MIC ([4]; Ec-58 E. coli A9675): 6.3 µg/mL (≈ 12.1 µM) | MIC [5]: 0.16 µg/mL (≈ 0.308 µM) | MIC [6]: 6.3 µg/mL (≈ 12.1 µM) | MIC [7]: > 100 µg/mL | dose excreted at 24 h [8]: 65% | inhibition at 16 µg/mL ([9]; Providencia rettgeri, read-out: percent of strains inhibited): 78% | MIC [10]: 0.13 µg/mL (≈ 0.25 µM) | Tmax [11]: 15 min | half-life [11]: 33 min | Cmax ([11]; 20 mg/kg): 36000 ng/mL | ED50 [12, 24]: 19 mg/kg | ED50 [12, 25]: 39 mg/kg | ED50 [13, 26]: 5.9 mg/kg | ED50 [13, 27]: 8 mg/kg | ED50 [14, 28]: 2 mg/kg | ED50 [14, 29]: 22 mg/kg | ED50 [15]: 3.5 mg/kg | ED50 [16, 30]: 0.37 mg/kg | ED50 [16, 31]: 1.5 mg/kg | ED50 [16, 32]: 2.2 mg/kg | ED50 [17]: 2.4 mg/kg | ED50 [18, 33]: 1.4 mg/kg | ED50 [18, 34]: 0.62 mg/kg | ED50 [18, 35]: 0.59 mg/kg | ED50 [19, 36]: 1.8 mg/kg | ED50 [19, 37]: 2.5 mg/kg | MIC [20]: 125 µg/mL (≈ 241 µM) | Relative Rate of Hydrolysis (benzylpenicillin = 100) [21]: < 0.5 | MIC [22, 38]: 0.5 µg/mL (≈ 0.962 µM) | MIC [22, 39]: 1 µg/mL (≈ 1.92 µM) | MIC [22, 40]: 0.25 µg/mL (≈ 0.481 µM) | MIC [22, 41]: 2 µg/mL (≈ 3.85 µM) | MIC [22, 42]: 0.5 µg/mL (≈ 0.962 µM) | MIC [22, 43]: 4 µg/mL (≈ 7.7 µM) | MIC [22, 44]: 0.5 µg/mL (≈ 0.962 µM) | MIC [22, 45]: 4 µg/mL (≈ 7.7 µM) | MIC [22, 46]: 0.5 µg/mL (≈ 0.962 µM) | MIC [22, 47]: 2 µg/mL (≈ 3.85 µM) | MIC [22, 48]: 0.25 µg/mL (≈ 0.481 µM) | MIC [22, 49]: 4 µg/mL (≈ 7.7 µM)

CC(=O)OCC1=C(C(=O)O)N2C(=O)[C@@H](NC(=O)Cc3cccs3)[C@H]2SC1 [Cephalothin]
percent of strains inhibited [9]: negligible | MIC [10]: 1 µg/mL (≈ 2.52 µM) | half-life [23]: 11 min | Cmax ([23]; 20 mg/kg): 17000 ng/mL | ED50 [12, 24]: > 350 mg/kg | ED50 [12, 25]: > 400 mg/kg | ED50 [13, 26]: > 380 mg/kg | ED50 [13, 27]: 160 mg/kg | ED50 [14, 28]: 94 mg/kg | ED50 [14, 29]: > 380 mg/kg | ED50 [15]: > 340 mg/kg | ED50 [16, 30]: 42 mg/kg | ED50 [16, 31]: 97 mg/kg | ED50 [16, 32]: 180 mg/kg | ED50 [17]: 140 mg/kg | ED50 [18, 33]: 41 mg/kg | ED50 [18, 34]: 11 mg/kg | ED50 [18, 35]: 14 mg/kg | ED50 [19, 36]: 11 mg/kg | ED50 [19, 37]: 17 mg/kg | MIC [20]: 8 µg/mL (≈ 20.2 µM) | Relative Rate of Hydrolysis (benzylpenicillin = 100) [21]: < 0.5 | MIC [22, 38]: 2 µg/mL (≈ 5.04 µM) | MIC [22, 39]: 8 µg/mL (≈ 20.2 µM) | MIC [22, 40]: 2 µg/mL (≈ 5.04 µM) | MIC [22, 41]: 32 µg/mL (≈ 80.7 µM) | MIC [22, 42]: 2 µg/mL (≈ 5.04 µM) | MIC [22, 43]: 16 µg/mL (≈ 40.4 µM) | MIC [22, 44]: 2 µg/mL (≈ 5.04 µM) | MIC [22, 45]: 8 µg/mL (≈ 20.2 µM) | MIC [22, 46]: 2 µg/mL (≈ 5.04 µM) | MIC [22, 47]: 32 µg/mL (≈ 80.7 µM) | MIC [22, 48]: 1 µg/mL (≈ 2.52 µM) | MIC [22, 49]: 16 µg/mL (≈ 40.4 µM)

From patent publication US4100346A, “Certain 7(o-amino-methyl- or methylaminomethylphenyl- or cyclohexadienyl- or thienylacetamide)-3[1-carboxymethyl-(or ethyl- or propyl-)-tetrazol-5-ylthiomethyl]-3-cephem-4-carboxylic acids” (Bristol-Myers Company, priority 1976, dated 1978)
